Results from patent publication US20230137092A1, “Composition and Method for the Treatment and Prevention of Cardiac, Pulmonary, Dermal, and Renal Fibrosis” (EMERALD HEALTH PHARMACEUTICALS INC., priority 2020, published 2023).

Experiments:
E2F pathway = assay: RNA-Seq of myocardial tissue with GSEA of MSigDb hallmarks, Ang II preventive model; type: in vivo, mouse; settings: cardiac RNA; Ang II-challenged mice; n=3 each group
Method: RNA seq analysis from RNA extracted of myocardial tissue was performed. Transcriptome libraries were constructed with TruSeq Illumina TruSeq mRNA Sample Prep v2 kit (#RS-122-2001). In brief, 300 ng of RNA from each sample was used to construct a cDNA library, followed by sequencing on the Illumina Hiseq 2500 with single end 50 bp reads and ˜30 million reads per sample.
RNA-Seq reads were pre-processed with fastp (v0.20.0) and aligned to mouse genome assembly grcm38 using HISAT2 (v2.1.0). Then, counts per gene were obtained with featureCounts (v1.6.1) and normalization and differential expression analyses were carried out using edgeR (v3.26.8), excluding those genes with less than 15 counts across all samples. Finally, the functional analysis was performed using the functional categories defined by MSigDb hallmarks for Mus musculus (V7.0) and the clusterProfiler package (v3.12.0).
The results confirmed the hallmarks that were enriched in the Ang II group versus control group were pathways related to fibrotic response; this was the case of IFN-α and IFN-γ response, TNF-α signaling via NF-KB, Epithelial Mesenchymal Transition and inflammatory responses, including IL6 JAK STAT Signaling (FIG. 6). The results were obtained after carrying out the functional analysis of the transcriptomic signatures in heart tissue. […]

[1] = tested on: Ang II-induced renal fibrosis; assay: Ang II-induced renal fibrosis, preventive model, Sirius Red; type: in vivo, mouse; settings: Ang II 1.0 mg kg^- min^- two weeks, 20 mg/kg oral gavage
Method: Ang II is the main peptide of the renin angiotensin system and a renal growth factor, inducing hyperplasia/hypertrophy depending on the cell type, and it induces renal fibrosis. Renal fibrosis was induced in mice by infusion of Ang II (1.0 mg kg^− min^−) for two weeks. The treatment with the compound of Formula (VIII) by oral gavage was the same as describe in Example 2. After two weeks of treatment, the mice were sacrificed under ether anesthesia. Kidney samples were collected and fixed in 4% paraformaldehyde and embedded in paraffin. The paraffin sections (5 μm) were stained with Sirius Red for evaluation of fibrosis. Subcutaneous Ang II infusion induced a significant increase of collagen content and in the mice treated with compound, the induction of fibrosis in the kidney is prevented (FIG. 10).

[2] = tested on: Ang II-induced pulmonary fibrosis; assay: Ang II therapeutic model: lung fibrosis, Masson's trichrome, Ashcroft score; type: in vivo, mouse; settings: Ang II four weeks, 20 mg/kg oral last two weeks, ###p<0.001 versus Ang II group
Method: Lung fibrosis was induced in mice by infusion of Ang II (500 ng kg^− min^−) for four weeks. The treatment with the compound of Formula (VIII) by oral gavage was the same as describe in Example 9. After two weeks of treatment, the mice were sacrificed under ether anesthesia. Lung samples were collected and fixed in 4% paraformaldehyde and embedded in paraffin. The paraffin sections (5 μm) were stained with Masson's trichrome (Merck Millipore, Darmstadt, Germany) for evaluation of fibrosis. Three-four random fields of each lung biopsy were photographed, digitalized using a Leica DFC420c camera and analyzed using Image J software in a blinded manner by two independent observers. The Ashcroft score was used to determine the degree of fibrosis in lung specimens as previously described (Ashcroft T et al., 1988, Clin. Pathol., 41:467-470; Hubner R H et al., 2008, Biotechniques, 44:507-511). Subcutaneous Ang II infusion induced pulmonary fibrosis which is prevented with compound (FIG. 15).

ERK1+2 = assay: Ang II-induced ERK1+2 phosphorylation in hICF, immunoblot; type: cell-based, human; settings: hICF preincubated with compound, Ang II for 30 minutes
Method: The effect of compound of Formula (VIII) on Ang II signaling pathways in hICF was investigated. ERK1+2 and NFAT activation are two pathways activated by Ang-II (Wakatsuki et al., 2004, Trends Biochem Sci, 29:609-617). hICF were preincubated with compound of Formula (VIII), treated with Ang II for 30 minutes, washed with PBS and proteins extracted in 50 μL of lysis buffer (50 mM Tris-HCl pH 7.5, 150 mM NaCl, 1% (v/v) NP-40, 10% (v/v) glycerol, 10 mM NaF, 1 mM Na3VO4, aprotinin (10 μg/ml), leupeptine (10 μg/ml), pepstatin (1 μg/ml) and 1 mM PMSF saturated). Separated proteins in 10% SDS/PAGE gels were transferred to PVDF membranes and blocked in TBS solution containing 0.1% Tween 20 and 5% bovine serum albumin (BSA) for 1 hour at room temperature. Immunodetection of specific proteins was carried out by incubation with primary antibodies against p-ERK (1:1000; #4695 Cell Signaling Technology) and ERK (1:1000, M5670, Sigma). Membranes were incubated with horseradish peroxidase-conjugated secondary antibody was added and proteins detected by chemiluminescence system (GE Healthcare Europe GmbH). Compound of Formula (VIII) inhibited Ang II-induced ERK1+2 phosphorylation (FIG. 16B).

[3] = Weight and behaviour observation during the preventive Ang II protocol; type: in vivo, mouse; settings: 20 mg/kg daily oral gavage
Method: Ang II causes myocardial fibrosis in a short period of time (Sopel M et al., 2011, Lab. Invest., 91:565-578) characterized by collagen accumulation and after 14 days of Ang II infusion (Sigusch H H et al., 1996, Cardiovascular Research, 31:546-554). […] Subcutaneous infusion of Ang II using ALZET® osmotic pumps was used to study compound preventive effects. ALZET® osmotic minipumps (Model #2004, Charles Rives, Barcelona, Spain) delivering of Ang II (1.0 mg kg^− min^−) (Sigma-Aldrich, Madrid, Spain) for two weeks. Compound treatment was daily administered in parallel, one day before of the implantation of the subcutaneous pump, beneath the mid scapular loose skin and consisted of daily oral gavage of compound (20 mg/kg) or vehicle (Corn Oil/Maisine CC, 1/1). Mice were acclimated to manipulators for a week previously to the experiments in order to reduce stress and allow the detection of subtle changes in behavior by researchers. […] Neither piloerection nor hunched appearances were appreciated during the experimental procedures. Mice were sacrificed by cervical dislocation and the heart, aorta, skin, and kidney were removed and processed for histological examination or were frozen for further analysis.

For `C=C(C)C1CCC(C)=C[C@H]1C1=C(O)C(=O)C(CCCCC)=C(NCc2ccccc2)C1=O` (stereo partly drawn) [Formula (VIII)], the “expression of a set of genes of E2F pathway (RNA-Seq)” value (E2F pathway) was “clearly downregulated”, the “induction of fibrosis in the kidney (collagen content)” value [1] was “prevented” and the “lung fibrosis (Ashcroft score)” value [2] was “reduced”. For the same compound, the “Ang II-induced ERK1+2 phosphorylation” value (ERK1+2) was “inhibited”, the behavioral changes [3] was “No behavioral changes” and the mice weight ([3]; between experimental groups) was “no significant changes”.
